Experiments:
[1] = test system: synaptosomes (SV retrieval from the plasma membrane); assay: FM2-10 SV internalisation assay (purified SVs from synaptosomes); type: cell-based, rat
Description: (§1) Loading of FM2-10 (Molecular Probes) into recycling synaptosomal SVs was measured as previously described. Data is presented as Ca^2+-dependent FM2-10 unloading, which is the difference between release after loading in plus and minus Ca^2+ solutions. Where indicated, synaptosomes were preincubated with penetratin peptide for 30 min prior to stimulation of FM2-10 loading. […] The same assay was used to monitor the effect of penetratin peptide on SV exocytosis. However, in this instance, the synaptosomes were loaded with FM2-10 in plus Ca^2+ Krebs-like solution and, where indicated, were preincubated with penetratin peptide for 30 min prior to stimulation of FM2-10 unloading. Data is presented as Ca^2+-dependent FM2-10 unloading. The SV internalisation assay was performed as previously described.
If SVE was arrested before SV fission occurred, […]. SVs were purified and their fluorescence values were corrected for dye uptake in the absence of Ca^2+ (Ca^2+-dependent) and normalised to control (n=3, mean ±s.e.m.).

amphiphysin I = molecular target: T1, amphiphysin I (Rattus norvegicus, UniProt O08838); assay: Elution of amphiphysin I from immunoprecipitated complex by peptide; type: binding; settings: data not shown
T1 construct: Syndapin I or dynamin I were immunoprecipitated from nerve terminals; from tissue; host or cells: rat brain crude (P2) synaptosomes
T1 sequence (O08838 1-683): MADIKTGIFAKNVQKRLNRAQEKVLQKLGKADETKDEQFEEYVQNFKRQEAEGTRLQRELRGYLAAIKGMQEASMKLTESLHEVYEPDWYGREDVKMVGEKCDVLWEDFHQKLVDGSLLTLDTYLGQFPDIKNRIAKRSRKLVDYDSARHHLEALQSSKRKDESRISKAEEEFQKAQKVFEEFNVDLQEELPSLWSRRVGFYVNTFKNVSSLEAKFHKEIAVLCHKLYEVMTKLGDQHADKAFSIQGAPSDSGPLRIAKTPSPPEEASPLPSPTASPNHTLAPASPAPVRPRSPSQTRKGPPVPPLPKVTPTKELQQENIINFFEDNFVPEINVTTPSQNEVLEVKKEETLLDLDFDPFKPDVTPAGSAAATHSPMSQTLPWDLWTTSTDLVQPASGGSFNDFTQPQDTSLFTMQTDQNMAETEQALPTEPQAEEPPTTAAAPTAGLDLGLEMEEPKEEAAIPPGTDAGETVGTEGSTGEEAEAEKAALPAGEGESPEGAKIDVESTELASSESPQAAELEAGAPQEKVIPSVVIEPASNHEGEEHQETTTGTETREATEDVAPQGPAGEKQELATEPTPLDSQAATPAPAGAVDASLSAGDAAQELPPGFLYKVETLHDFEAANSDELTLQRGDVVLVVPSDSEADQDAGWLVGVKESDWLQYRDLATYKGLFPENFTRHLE
Description: (§2) To determine whether the phospho-box sequence might account for syndapin I recruitment to dynamin I, the ability of a DynI769-784AA peptide (FIG. 5a) to disrupt their interaction was tested. Syndapin I or dynamin I were immunoprecipitated from nerve terminals and the individual protein complexes were incubated with DynI769-784AA (SEQ ID No. 8) peptide (see below). Their interaction in both cases was reduced by the peptide, as indicated by the specific release of either binding partner from the bead-bound complex (FIG. 4c). No elution of endophilin I (FIG. 4c) or amphiphysin I (data not shown) was detected, highlighting the specificity of the interaction.
(§3) Crude (P2) synaptosomes were prepared from rat brain and lysed as described in Example 1.1.3. Synaptosome lysates were incubated with 5 μg of anti-syndapin I or […] pre-bound to protein G-sepharose (Roche) for 3 h at 4° C. Beads were washed with ice-cold PBS, eluted in SDS-PAGE sample buffer and blotted with anti-syndapin I, anti-endophilin I and anti-dynamin I antibodies.

[2] = test system: synaptosomes (synaptic vesicle turnover); assay: SV turnover assay (FM2-10 loading/unloading) in synaptosomes; type: cell-based, rat
Description: (§4) In all SV recycling studies synaptosomes were prepared from rat cerebral cortex by centrifugation on discontinuous percoll gradients (Dunkley et al. 1986). The glutamate release assay was performed as described before (Cousin and Robinson 2000a). Data is presented as Ca^2+-dependent glutamate release, calculated as the difference between release in plus and minus Ca^2+ solutions. Penetratin peptides (Genemed Synthesis) were preincubated with the synaptosomes for 30 min before stimulation and had no effect on Ca^2+-independent release of glutamate.
as §1
SVE in synaptosomes was measured to determine whether the phosphorylation sites in dynamin I play a direct role in SVE. Since isolated nerve terminals cannot be transfected with DNA, a membrane-permeable peptide strategy was employed. Mimetic peptides (DynI769-784AA (SEQ ID No. 8) and DynI769-784EE (SEQ ID No. 9)) were designed corresponding to the amino acid sequence of the dynamin I phospho-box (FIG. 5a) and were tagged with a penetratin heptapeptide RRMKWKK (SEQ ID No. 12) to facilitate their delivery into synaptosomes. Briefly, synaptosomes were preincubated in the presence or absence of either penetratin peptide (250 μM) prior to FM2-10 loading stimulated by 30 mM KCl. Accumulated FM2-10 was unloaded by another KCl stimulus (indicated by the solid bar). […] If the phosphorylation-regulated syndapin I interaction itself is essential for SVE, the penetratin-linked peptides may inhibit the process. […] The DynI769-784AA peptide (250 μM) inhibited turnover by more than 40% (57.1±2.1% of control), compared to less than 20% with the DynI769-784EE peptide (250 μM, 81.1±2.4% of control).

[3] = test system: synaptosomes (SV exocytosis); assay: KCl-evoked Ca2+-dependent glutamate release assay in synaptosomes; type: cell-based, rat; settings: peptide preincubated 30 min; KCl stimulation
Description: as §4
A block in SV turnover cannot be ascribed to an inhibition of SVE until an effect on exocytosis has been excluded. Two independent exocytosis assays were conducted to assess this: endogenous glutamate release and FM2-10 unloading. Neither the DynI769-784AA nor DynI769-784EE peptide had any significant effect on KCl-evoked Ca^2+-dependent glutamate release (DynI769-784AA […]±8.4% of control; DynI769-784EE […]±9.5% of control, FIG. 5c). Both peptides had small effects on FM2-10 unloading evoked by 30 mM KCl (DynI769-784AA −81.1±0.8% of control; DynI769-784EE −82.3±0.6% of control, FIG. 5d). Finally, the extent of SVE inhibition by the peptides was quantified by calculating “retrieval efficiency” which takes into account prior exocytosis; a value of less than one indicating a selective SVE inhibition. […]

[4] = molecular target: T2, dynamin I-endophilin I interaction (Rattus norvegicus, UniProt O35179); assay: Elution of endophilin I from immunoprecipitated complex by peptide; type: binding; settings: immunoprecipitated complex incubated with peptide
T2 construct: Syndapin I or dynamin I were immunoprecipitated from nerve terminals; from tissue; host or cells: rat brain crude (P2) synaptosomes
Description: as §2, §3

T2 sequence (O35179 whole entry): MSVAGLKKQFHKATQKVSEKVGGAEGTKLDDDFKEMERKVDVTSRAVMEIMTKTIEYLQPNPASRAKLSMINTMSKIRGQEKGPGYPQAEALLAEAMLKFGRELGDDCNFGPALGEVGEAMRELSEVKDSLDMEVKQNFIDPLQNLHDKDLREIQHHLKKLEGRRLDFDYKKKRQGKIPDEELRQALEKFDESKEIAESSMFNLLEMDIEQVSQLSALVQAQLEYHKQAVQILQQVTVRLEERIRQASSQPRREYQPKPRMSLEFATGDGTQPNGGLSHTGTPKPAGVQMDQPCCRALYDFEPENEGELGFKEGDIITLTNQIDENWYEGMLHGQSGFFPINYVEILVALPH

Substance: DynI769-784AA: Dynamin I phospho-box mimetic peptide (residues 769-784), AA mutant, tagged with penetratin heptapeptide RRMKWKK (RRMKWKKPAGRRAPTSAPTPQRR; listed as Rattus norvegicus)
- inhibition of FM2-10 accumulation in SVs [1]: approximately 35%
- FM2-10 accumulation in purified SVs (Ca2+-dependent) ([1]; n=3, mean ± s.e.m.): 64.9±5.5 % of control
- elution of amphiphysin I from complex (amphiphysin I): No elution
- inhibition of SV turnover ([2]; peptide 250 μM): more than 40%
- SV turnover ([2]; peptide 250 μM, 30 min preincubation, FM2-10 loading with 30 mM KCl): 57.1±2.1 % of control
- retrieval efficiency (SV turnover/exocytosis) ([2]; using data from either exocytosis assay, value below one = selective SVE inhibition): robust inhibition
- KCl-evoked Ca2+-dependent glutamate release [3]: 92.5±8.4 % of control
- elution of endophilin I from complex [4]: No elution

— US20080306007A1, “AGENTS FOR PROPHYLAXIS OR TREATMENT OF NEUROLOGICAL RELATED DISEASES AND CONDITIONS” (Newcastle Innovation Limited, priority 2007, published 2008)
